Laboratory results taken from patent publication US3994885A, “Process for etherifying β-lactam antibiotics” (Eli Lilly and Company, priority 1975, dated 1976).
In brackets after ≈: the same amount, converted by molar mass.

Tests used:
Shigella sp. = assay: Gradient Plate MIC vs gram-negative microorganisms
Escherichia coli [1] = assay: Gradient Plate MIC vs gram-negative microorganisms
Klebsiella pneumoniae [2] = assay: Gradient Plate MIC vs gram-negative microorganisms
Aerobacter aerogenes = assay: Gradient Plate MIC vs gram-negative microorganisms; settings: Klebsiella aerogenes
Salmonella heidelberg = assay: Gradient Plate MIC vs gram-negative microorganisms; settings: Salmonella enterica
Pseudomonas aeruginosa = assay: Gradient Plate MIC vs gram-negative microorganisms
Serratia marcescens [3] = assay: Gradient Plate MIC vs gram-negative microorganisms
[4] = test system: Penicillin Resistant Staphylococcus aureus V41; assay: Gradient Plate MIC vs penicillin resistant Staphylococcus aureus, isolate V41
[5] = test system: Penicillin Resistant Staphylococcus aureus V32; assay: Gradient Plate MIC vs penicillin resistant Staphylococcus aureus, isolate V32
[6] = test system: Penicillin Resistant Staphylococcus aureus V84; assay: Gradient Plate MIC vs penicillin resistant Staphylococcus aureus, isolate V84
[7] = test system: Penicillin Resistant Staphylococcus aureus X400; assay: Gradient Plate MIC vs penicillin resistant Staphylococcus aureus, isolate X400
[8] = test system: Penicillin Resistant Staphylococcus aureus X1.1; assay: Gradient Plate MIC vs penicillin resistant Staphylococcus aureus, isolate X1.1
Staphylococcus aureus = assay: In vitro antibiotic spectrum, disc-plate method; type: cell-based; settings: read-out: Diameter of Zone of Inhibition; for zone of inhibition at 500 µg/mL: concentration 0.5 mg/ml
Bacillus subtilis = assay: In vitro antibiotic spectrum, disc-plate method; type: cell-based; settings: read-out: Diameter of Zone of Inhibition; for zone of inhibition at 500 µg/mL: concentration 0.5 mg/ml (ditto)
Sarcina lutea = assay: In vitro antibiotic spectrum, disc-plate method; type: cell-based; settings: Micrococcus luteus, read-out: Diameter of Zone of Inhibition; for zone of inhibition at 500 µg/mL: concentration 0.5 mg/ml (ditto)
Mycobacterium avium = assay: In vitro antibiotic spectrum, disc-plate method; type: cell-based; settings: read-out: Diameter of Zone of Inhibition
Proteus vulgaris = assay: In vitro antibiotic spectrum, disc-plate method; type: cell-based; settings: read-out: Diameter of Zone of Inhibition; for zone of inhibition at 500 µg/mL: concentration 0.5 mg/ml
Salmonella gallinarum = assay: In vitro antibiotic spectrum, disc-plate method; type: cell-based; settings: Salmonella enterica, read-out: Diameter of Zone of Inhibition; for zone of inhibition at 500 µg/mL: concentration 0.5 mg/ml (ditto)
Excerpt: In the following Table III the antibiotic activity of the compounds of the invention is further illustrated by the activity shown for representative compounds as determined by the standard disc-plate method.

Escherichia coli [9] = assay: In vitro antibiotic spectrum, disc-plate method; type: cell-based; settings: read-out: Diameter of Zone of Inhibition; for zone of inhibition at 500 µg/mL: concentration 0.5 mg/ml (ditto)
Klebsiella pneumoniae [10] = assay: In vitro antibiotic spectrum, disc-plate method; type: cell-based; settings: read-out: Diameter of Zone of Inhibition; for zone of inhibition at 500 µg/mL: concentration 0.5 mg/ml (ditto)
Serratia marcescens [11] = assay: In vitro antibiotic spectrum, disc-plate method; type: cell-based; settings: read-out: Diameter of Zone of Inhibition; for zone of inhibition at 500 µg/mL: concentration 0.5 mg/ml (ditto)
Pseudomonas solanacearum = assay: microbe, parasite or virus in culture; type: cell-based; settings: Ralstonia solanacearum, read-out: Diameter of Zone of Inhibition
[12] = concentration 0.1 mg/ml (ditto)

COC1(NC(=O)Cc2cccs2)C(=O)N2C(C(=O)O)=C(CSc3nnnn3C)CS[C@@H]21 (stereo partly shown) [B, 7-methoxy-7-[2-(2-thienyl)acetamido]-3-(1-methyl-1H-tetrazol-5-ylthiomethyl)-3-cephem-4-carboxylic acid]
MIC (Shigella sp.): 6.6 µg/mL (≈ 13.7 µM) | MIC (Escherichia coli [1]): 7.9 µg/mL (≈ 16.4 µM) | MIC (Klebsiella pneumoniae [2]): 0.5 µg/mL (≈ 1.04 µM) | MIC (Aerobacter aerogenes): 3.5 µg/mL (≈ 7.25 µM) | MIC (Salmonella heidelberg): 0.9 µg/mL (≈ 1.87 µM) | MIC (Pseudomonas aeruginosa): > 200 µg/mL | MIC (Serratia marcescens [3]): 5.4 µg/mL (≈ 11.2 µM) | MIC ([4]; NS = absence of serum): 1.5 µg/mL (≈ 3.11 µM) | MIC ([4]; S = presence of serum): 1.1 µg/mL | MIC ([5]; NS = absence of serum): 1.8 µg/mL (≈ 3.73 µM) | MIC ([5]; S = presence of serum): 2 µg/mL | MIC ([6]; NS = absence of serum): 0.6 µg/mL (≈ 1.24 µM) | MIC ([6]; S = presence of serum): 1 µg/mL | MIC ([7]; NS = absence of serum): 10 µg/mL (≈ 20.7 µM) | MIC ([7]; S = presence of serum): 9.5 µg/mL | MIC ([8]; NS = absence of serum): 0.4 µg/mL (≈ 0.829 µM) | MIC ([8]; S = presence of serum): 0.5 µg/mL

COC1(NC(=O)C(O)c2ccccc2)C(=O)N2C(C(=O)O)=C(CSc3nnnn3C)CS[C@@H]21 (stereo partly shown) [A, 7-methoxy-7-mandelamido-3-(1-methyl-1H-tetrazole-5-ylthiomethyl)-3-cephem-4-carboxylic acid]
MIC (Shigella sp.): 2 µg/mL (≈ 4.06 µM) | MIC (Escherichia coli [1]): 2.5 µg/mL (≈ 5.08 µM) | MIC (Klebsiella pneumoniae [2]): 0.6 µg/mL (≈ 1.22 µM) | MIC (Aerobacter aerogenes): 0.7 µg/mL (≈ 1.42 µM) | MIC (Salmonella heidelberg): 0.6 µg/mL (≈ 1.22 µM) | MIC (Pseudomonas aeruginosa): > 200 µg/mL | MIC (Serratia marcescens [3]): 3.4 µg/mL (≈ 6.9 µM) | MIC ([4]; NS = absence of serum): 4.2 µg/mL (≈ 8.53 µM) | MIC ([4]; S = presence of serum): 6.7 µg/mL | MIC ([5]; NS = absence of serum): 4.5 µg/mL (≈ 9.14 µM) | MIC ([5]; S = presence of serum): 7.6 µg/mL | MIC ([6]; NS = absence of serum): 3.1 µg/mL (≈ 6.29 µM) | MIC ([6]; S = presence of serum): 2 µg/mL | MIC ([7]; NS = absence of serum): 16.6 µg/mL (≈ 33.7 µM) | MIC ([7]; S = presence of serum): 15.4 µg/mL | MIC ([8]; NS = absence of serum): 0.5 µg/mL (≈ 1.02 µM) | MIC ([8]; S = presence of serum): < 0.1 µg/mL

COC1(NC(=O)C(O)c2ccccc2)C(=O)N2C(C(=O)O)=C(CSc3nnc(C)s3)CS[C@@H]21 (stereo partly shown) [E, 7-methoxy-7-mandelamido-3-(5-methyl-1,3,4-thiadiazol-2-ylthiomethyl)-3-cephem-4-carboxylic acid]
zone of inhibition at 100 µg/mL (Staphylococcus aureus; concentration 0.1 mg/ml): 25 mm | zone of inhibition at 100 µg/mL (Bacillus subtilis; [12]): 22 mm | zone of inhibition at 100 µg/mL (Sarcina lutea; [12]): 24 mm | zone of inhibition at 1000 µg/mL (Mycobacterium avium; concentration 1.0 mg/ml): 15 mm | zone of inhibition at 100 µg/mL (Proteus vulgaris; concentration 0.1 mg/ml): 18 mm | zone of inhibition at 1000 µg/mL (Salmonella gallinarum; concentration 1.0 mg/ml): 20 mm | zone of inhibition at 100 µg/mL (Escherichia coli [9]; concentration 0.1 mg/ml): 22 mm | zone of inhibition at 100 µg/mL (Klebsiella pneumoniae [10]; [12]): 16 mm | zone of inhibition at 1000 µg/mL (Serratia marcescens [11]; concentration 1.0 mg/ml): 18 mm | zone of inhibition at 1000 µg/mL (Pseudomonas solanacearum): 16 mm

COC1(NC(=O)Cn2cnnn2)C(=O)N2C(C(=O)O)=C(COC(C)=O)CSC21 (stereo not shown) [D, 7-[2-(1-Tetrazolyl)acetamido]:7:methoxy-3-acetoxymethyl-3-cephem-4-carboxylic acid]
zone of inhibition at 500 µg/mL (Staphylococcus aureus): 24 mm | zone of inhibition at 500 µg/mL (Bacillus subtilis): 24 mm | zone of inhibition at 500 µg/mL (Sarcina lutea): 23 mm | zone of inhibition at 5000 µg/mL (Mycobacterium avium; concentration 5.0 mg/ml): 20 mm | zone of inhibition at 500 µg/mL (Proteus vulgaris): 18 mm | zone of inhibition at 500 µg/mL (Salmonella gallinarum): 25 mm | zone of inhibition at 500 µg/mL (Escherichia coli [9]): 20 mm | zone of inhibition at 500 µg/mL (Klebsiella pneumoniae [10]): 17 mm | zone of inhibition at 500 µg/mL (Serratia marcescens [11]): 17 mm | zone of inhibition at 500 µg/mL (Pseudomonas solanacearum): 23 mm

COC1(NC(=O)Cn2cnnn2)C(=O)N2C(C(=O)O)=C(CSc3nnc(C)s3)CS[C@@H]21 (stereo partly shown) [C, 7-[2-(1-tetrazolyl)acetamido]-7-methoxy-3-(5-methyl-1,3,4-thiadiazol-2-ylthiomethyl)-3-cephem-4-carboxylic acid]
zone of inhibition at 500 µg/mL (Staphylococcus aureus): 24 mm | zone of inhibition at 500 µg/mL (Bacillus subtilis): 25 mm | zone of inhibition at 500 µg/mL (Sarcina lutea): 23 mm | zone of inhibition at 500 µg/mL (Mycobacterium avium; concentration 0.5 mg/ml (ditto)): 10 mm | zone of inhibition at 500 µg/mL (Proteus vulgaris): 21 mm | zone of inhibition at 500 µg/mL (Salmonella gallinarum): 26 mm | zone of inhibition at 500 µg/mL (Escherichia coli [9]): 23 mm | zone of inhibition at 500 µg/mL (Klebsiella pneumoniae [10]): 19 mm | zone of inhibition at 500 µg/mL (Serratia marcescens [11]): 19 mm | zone of inhibition at 500 µg/mL (Pseudomonas solanacearum): 16 mm
